{"source": "patent US7700562B2", "about": "“Use of —furin—“convertase” inhibitors in the treatment of fibrosis and scarring” (Renovo Limited, priority 2002, dated 2010)", "key": {"[1]": {"test_system": "latent TGF-β activation in human platelets", "test": "TGF-β activation by thrombin-activated human platelets, active and total TGF-β by PAI/L bioassay", "type": "cell-based", "settings": "for latent TGF-β activation: platelets pre-incubated with inhibitor before thrombin stimulation, platelet releasates, FIG. 1 panels A and B"}, "[2]": {"test_system": "latent TGF-β activation in human platelets", "test": "TGF-β activation by thrombin-activated human platelets, active and total TGF-β by PAI/L bioassay", "type": "cell-based", "settings": "for active TGF-β in releasates: thrombin-stimulated platelets, hexaarginine pre-incubated, dec-RVKR-cmk added, FIG. 2 panel A", "protocol": "Peripheral venous blood samples from healthy adult volunteers (aged 21 to 45) were taken into 20-gauge S-Monovettes. EDTA was used to prevent coagulation of the samples. Human platelets were isolated by differential centrifugation according to the following protocol:\nBlood samples were centrifuged at 300 g for 10 minutes to produce a supernatant of platelet rich plasma. Platelet rich plasma was then centrifuged at 2,500 g for 15 minutes to produce a pellet of platelets. Platelets were harvested from the pellet and resuspended prior to use.\n(§1) Platelets collected as described above were resuspended in distilled water and incubated at room temperature for 5 minutes. Lysis was stopped by addition of an equal volume of 2× serum-free DME medium containing 0.2% pyrogen poor bovine serum albumen. The lysate was cleared by centrifugation at 12,000 g for 10 minutes at room temperature before use.\nHuman platelets collected as outlined above were activated by the addition of thrombin (0.1 u/ml for 30 minutes at 37° C.).\nPlatelets were activated with thrombin in the absence or presence of furin inhibitors. […] Active and total TGF-β in releasates were determined in the PAI/L bioassay. The results are shown in panel A of FIG. 2."}, "[3]": {"test_system": "furin-like enzyme activity", "test": "Furin-like enzyme activity in platelet lysates and releasates, fluorogenic furin substrate pyr-RTKR-amc", "type": "biochemical, human", "settings": "hexaarginine 200 μM, dec-RVKR-cmk 150 μM, FIG. 3; for furin-like enzyme activity in cell lysates: hypotonic lysates of activated platelets; for furin-like enzyme activity in releasates: releasates of activated platelets", "protocol": "as §1\nReleasates or hypotonic lysates of activated platelets were assayed using the furin substrate, pyr-RTKR-amc (SEQ ID NO:3) in the absence or presence of the furin inhibitors, hexaarginine (SEQ ID NO: 7) (200 μM) or dec-RVKR-cmk (SEQ ID NO:1) (150 μM). Values were corrected for substrate-independent endogenous fluorescence (control without substrate) as well as for spontaneous substrate hydrolysis (buffer control). Mean values±S.E.M. of 2-3 separate experiments assayed in duplicate are shown.\nThe presence of furin-like enzyme activity in both hypotonic lysates and releasates of human platelets was analysed using the fluorogenic furin substrate, pyr-RTKR-amc (SEQ ID NO:3). Platelet lysates contained a furin-like enzyme activity, part of which (approximately 12%) was released upon thrombin stimulation. Enzyme activity in cell lysates and releasates was inhibited by dec-RVKR-cmk (SEQ ID NO:1) and hexa-L-arginine (SEQ ID NO: 7) (FIG. 3)."}, "[4]": {"test_system": "latent TGF-β activation in platelet-free releasates", "test": "TGF-β activation in platelet-free releasates of activated platelets, PAI/L bioassay", "type": "biochemical, human", "settings": "inhibitor added to platelet-free releasates, 30 mm at 37° C.; FIG. 2B", "protocol": "In a further experiment, furin inhibitors were added to platelet-free releasates of activated platelets, and activation was allowed to continue in the absence of platelets for […] at 37° C. The results of this experiment are shown in panel B of FIG. 2. Active TGF-β levels in the controls were 77 pg/ml (dec-RVKR-cmk data (SEQ ID NO:1)) and 104 pg/ml (hexaarginine data (SEQ ID NO: 7)). Incubation on ice reduced activation in the controls to approximately 56% (data not shown). Data represent the mean values of three independent experiments assayed in triplicate."}}, "note": "Non-standard residues stand in square brackets, D forms with d. Residues, ends and D or L forms follow the SMILES beside them. *: point of attachment. Sta = CC(C)C[C@H](N)[C@@H](O)CC(=O)O; Decanoyl = CCCCCCCCCC(=O)*; Isovaleryl = CC(C)CC(=O)*; CH2Cl = ClC*", "data": [{"molecule": "CC(C)C[C@H](NC(=O)[C@H]1O[C@@H]1C(=O)O)C(=O)NCCCCN=C(N)N", "note": "[E-64]", "values": [{"measurement": "latent TGF-β activation", "setting": "[1]", "result": "ineffective"}]}, {"molecule": "O=C[C@@H](O)[C@@H](O)[C@H](O)[C@H](O)COP(=O)(O)O", "note": "[M6P, mannose-6-phosphate]", "values": [{"measurement": "latent TGF-β activation", "setting": "[1]", "result": "not significantly affected"}]}, {"molecule": "CC(=O)N[C@@H](CC(C)C)C(=O)N[C@@H](CC(C)C)C(=O)N[C@H](C=O)CCCNC(=N)N", "note": "[leupeptin]", "values": [{"measurement": "latent TGF-β activation", "setting": "[1]", "result": "ineffective"}]}, {"molecule": "Cl.NCCc1ccc(S(=O)(=O)F)cc1", "note": "[pefabloc]", "values": [{"measurement": "latent TGF-β activation", "setting": "[1]", "result": "ineffective"}]}, {"molecule": "CC(C)CC(=O)N[C@H](C(=O)N[C@H](C(=O)N[C@@H](CC(C)C)[C@@H](O)CC(=O)N[C@@H](C)C(=O)N[C@@H](CC(C)C)[C@@H](O)CC(=O)O)C(C)C)C(C)C", "note": "[pepstatin] (Isovaleryl-VV[Sta]A[Sta]-OH)", "values": [{"measurement": "latent TGF-β activation", "setting": "[1]", "result": "ineffective"}]}, {"molecule": "LSKL peptide: inhibitor specific for TSP-1", "values": [{"measurement": "latent TGF-β activation", "setting": "[1]", "result": "not significantly affected"}]}, {"molecule": "aprotinin", "values": [{"measurement": "latent TGF-β activation", "setting": "[1]", "result": "ineffective"}]}, {"molecule": "decanoyl-Arg-Val-Lys-Arg-chloromethyl ketone (Decanoyl-RVKR-CH2Cl) [dec-RVKR-cmk]", "values": [{"measurement": "residual TGF-β present", "setting": "[2]; remaining after inhibitor, believed to be activated prematurely during platelet preparation", "result": "20-30%"}, {"measurement": "active TGF-β in releasates", "setting": "[2]", "result": "considerably reduces"}, {"measurement": "furin-like enzyme activity in cell lysates", "setting": "[3]", "result": "inhibited"}, {"measurement": "furin-like enzyme activity in releasates", "setting": "[3]", "result": "inhibited"}, {"measurement": "generation of active TGF-β intracellularly", "setting": "[1]; measured in hypotonic lysates, dose-dependent, FIG. 1 panel C", "result": "drastically reduced"}, {"measurement": "generation of active TGF-β in releasates", "setting": "[1]; platelet incubation with inhibitor, thrombin stimulation, dose-dependent, FIG. 1 panel C", "result": "drastically reduced"}, {"measurement": "activation in platelet-free releasates", "setting": "[4]", "result": "inhibited, in a dose-dependent fashion"}]}, {"molecule": "hexa-L-arginine (RRRRRR)", "values": [{"measurement": "active TGF-β in releasates", "setting": "[2]", "result": "significantly reduced"}, {"measurement": "furin-like enzyme activity in cell lysates", "setting": "[3]", "result": "inhibited"}, {"measurement": "furin-like enzyme activity in releasates", "setting": "[3]", "result": "inhibited"}, {"measurement": "activation in platelet-free releasates", "setting": "[4]", "result": "inhibited, in a dose-dependent fashion"}]}, {"molecule": "α1-antitrypsin", "values": [{"measurement": "latent TGF-β activation", "setting": "[1]", "result": "ineffective"}]}]}
